The text below walks through data of patent US10966996B2, “Glechoma longitube extract, preparation method for same, and use thereof in sugar reduction, weight loss, and lipid reduction” (SHANGHAI INSTITUTE OF MATERIA MEDICA CHINESE ACADEMY OF …, priority 2014, dated 2021).

In series [1] the test system is db/db mice. Kind of series: long term administration of Compound I in db/db mice. To be noted: 50 mg/kg once a day. The series is classed as in vivo. The method, then:
After the end of the acute experiment, each group of mice undergone long term administration experiment following the grouping in below: equal volume of distilled water was given to control group of mice; Compound I at the dosage of 50 mg/kg was given to administration group; DDP4 inhibitor, Sitagliptin, at 10 mg/kg was intragastric administrated to positive control group. Dosage volume was 10 ml/kg, once a day for 4 weeks. Weight, blood glucose, and dietary change of the mice were monitored every week. The improvement of diabetic symptom of spontaneous diabetes mellitus type 2 model db/db mice by long term administration of Compound I was evaluated.

Series [2] relates to db/db mice. Kind of series: acute oral glucose tolerance in db/db mice. The series is classed as in vivo. Conditions: 100 mg/kg. The procedure:
Oral glucose tolerance test (OGTT) method: 8-week old male C57BL/KsJ mice (Shanghai Slac Laboratory Animal Company), 8 for each group, weight of 20±2 g, were fed according to SPF grade operation procedure and fasted for 16 hours prior to experiment. Blood was collected from tail vein of each group of mice prior to experiment. Blood glucose concentrations were measured using Roche ACCU-CHEK glucometer and recorded as time 0. Different concentrations of the compound were intragastric administrated to each administration group of mice, respectively. Equal volume of distilled water was given to control group of mice. The dosage volume was 10 ml/kg. Half an hour after administration, 5 g/kg glucose was intragastric administrated to each group of mice. Blood glucose concentrations of each group of mice were measured and recorded at 20 mins, 40 mins, and 80 mins after the intragastric administration. OGTT curves were recorded. Areas under the curves (AUC) were calibrated with the data in blood glucose of mice to which glucose was not given (calibration group). ONE-WAY-ANOVA was used to compare significant difference between each group (Note: all the experimental methods for acute oral glucose tolerance test in the following activity examples are the same to the experimental method in Example 5, unless otherwise indicated). […]

Setting [3] is: two weeks after the administration.

Each structure is given as a SMILES string. Entries after “also recorded” stand apart in the source; their conditions may differ.

In the case of `O=C(O)C1O[C@@H](OC2C(O)[C@H](O)C(C(=O)O)O[C@H]2Oc2cc(O)c3c(=O)cc(-c4ccc(O)c(O)c4)oc3c2)C(O)C(O)[C@@H]1O` (stereo partly drawn) [Compound I, luteolin-7-O-[β-glucuronosyl(1→2)β-glucuronic acid]], the “weight and diet of the mice” value in series [1] is “did not significantly affect the weight and diet of the mice”. Moreover, in series [1] (setting [3]), the fasting blood glucose entry was “significantly decreased; also recorded: lowered fasting blood glucose of mice” and the instant blood glucose entry is “significantly decreased; also recorded: lowered instant blood glucose of mice”. In addition, in series [2], the “acute oral glucose tolerance in db/db mice” value is reported as “significantly enhances acute oral glucose tolerance”.
